US20160075653A1, “NEMATICIDAL N-(PHENYLCYCLOALKYL)CARBOXAMIDES AND N-(PHENYLCYCLOALKYL)THIOCARBOXAMIDES” (BAYER CROPSCIENCE AKTIENGESELLSCHAFT, priority 2013, published 2016)

Assay: Measurement of log P values by HPLC on reversed phase columns (methods [a] pH 2.3, [b] pH 2.7, [c] pH 7.8)
Type: physicochemical
Conditions: for logP: HPLC reversed phase; for chromatographic logP: reversed phase HPLC columns, pH 2.7, HPLC reversed phase, read-out: logP
In short: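 Determined per EEC Directive 79/831 Annex V.A8 by reversed-phase HPLC, 10-95% acetonitrile gradient: [a] pH 2.3, 0.1% phosphoric acid; [b] LC-MS, pH 2.7, 0.1% formic acid; [c] LC-MS, pH 7.8, 0.001 molar ammonium hydrogen carbonate. Calibrated with C3-C16 alkan-2-ones by retention-time interpolation.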

Row | SMILES | logP (method [b], pH 2.7) | further results
1 | Fc1ccc(C2CCCC2NC(=S)C2=C(C(F)(F)F)OCCS2)cc1F (stereo not shown) [Example 150] | 4.21^[b] | –
2 | Cn1cc(C(=O)NC2CC2c2ccc(Cl)cc2)c(C(F)F)n1 (stereo not shown) [Example 151] | 2.30^[b] | –
3 | Cc1nn(C)c(F)c1C(=O)N(C1CC1)C1CCCCC1c1ccccc1Cl (stereo not shown) [Example 154] | 3.94^[b] | –
4 | Cn1cc(C(=O)N(C2CC2)C2CCCC2c2ccc(Cl)cc2Cl)c(C(F)F)n1 (stereo not shown) [Example 155] | 4.23^[b] | –
5 | Cn1cc(C(=O)N(C2CC2)C2CCCC2c2ccccc2Cl)c(C(F)F)n1 (stereo not shown) [Example 156] | 3.85^[b] | –
6 | Cn1cc(C(=O)N(C2CC2)C2CCCCC2c2ccc(Cl)cc2Cl)c(C(F)F)n1 (stereo not shown) [Example 157] | 4.59^[b] | –
7 | Cn1cc(C(=O)N(C2CC2)C2CCCCC2c2ccccc2Cl)c(C(F)F)n1 (stereo not shown) [Example 158] | 4.03^[b] | –
8 | Cc1nn(C)c(F)c1C(=O)N(C1CC1)C1CCCC1c1ccc(Cl)cc1Cl (stereo not shown) [Example 159] | 4.18^[b] | –
9 | CCc1nn(C)c(F)c1C(=O)N(C1CC1)C1CCCC1c1ccc(Cl)cc1Cl (stereo not shown) [Example 160] | 4.65^[b] | –
10 | CCc1nn(C)c(F)c1C(=O)N(C1CC1)C1CCCCC1c1ccc(Cl)cc1Cl (stereo not shown) [Example 161] | 5.08^[b] | –
11 | CCc1nn(C)c(F)c1C(=O)N(C1CC1)C1CCCCC1c1ccccc1Cl (stereo not shown) [Example 162] | 4.39^[b] | –
12 | Cc1cc(C(=O)N(C2CC2)C2CCCCC2c2ccc(Cl)cc2Cl)c(C)o1 (stereo not shown) [Example 163] | 5.85^[b] | –
13 | Cc1nn(C)c(F)c1C(=O)N(C1CC1)C1CCCC1c1ccccc1Cl (stereo not shown) [Example 164] | 3.71^[b] | –
14 | Cc1nn(C)c(F)c1C(=O)N(C1CC1)C1CCCCC1c1ccc(Cl)cc1Cl (stereo not shown) [Example 165] | 4.59^[b] | –
15 | Cn1nc(C(F)F)c(C(=O)N(C2CC2)C2CCCC2c2ccc(Cl)cc2Cl)c1F (stereo not shown) [Example 166] | 4.67^[b] | –
16 | Cn1nc(C(F)F)c(C(=O)N(C2CC2)C2CCCC2c2ccccc2Cl)c1F (stereo not shown) [Example 167] | 4.31^[b] | –
17 | Cn1nc(C(F)F)c(C(=O)N(C2CC2)C2CCCCC2c2ccc(Cl)cc2Cl)c1F (stereo not shown) [Example 168] | 5.05^[b] | –
18 | Cn1nc(C(F)F)c(C(=O)N(C2CC2)C2CCCCC2c2ccccc2Cl)c1F (stereo not shown) [Example 169] | 4.49^[b] | –
19 | Cc1nc(C(F)F)c(C(=O)N(C2CC2)C2CCCCC2c2ccc(Cl)cc2Cl)s1 (stereo not shown) [Example 170] | 5.25^[b] | –
20 | Cc1nc(C(F)F)c(C(=O)N(C2CC2)C2CCCCC2c2ccccc2Cl)s1 (stereo not shown) [Example 171] | 4.67^[b] | –
21 | CCc1nn(C)c(F)c1C(=O)N(C1CC1)C1CCCC1c1ccccc1Cl (stereo not shown) [Example 172] | 4.21^[b] | –

Row | SMILES | logP (method [b], pH 2.7) | further results
22 | Cc1nc(C(F)F)c(C(=O)N(C2CC2)C2CCCC2c2ccc(Cl)cc2Cl)s1 (stereo not shown) [Example 173] | 4.85^[b] | –
23 | Cc1nc(C(F)F)c(C(=O)N(C2CC2)C2CCCC2c2ccccc2Cl)s1 (stereo not shown) [Example 174] | 4.51^[b] | –
24 | Cc1cc(C(=O)N(C2CC2)C2CCCC2c2ccc(Cl)cc2Cl)c(C)o1 (stereo not shown) [Example 175] | 5.39^[b] | –
25 | Cc1cc(C(=O)N(C2CC2)C2CCCC2c2ccccc2Cl)c(C)o1 (stereo not shown) [Example 176] | 4.95^[b] | –
26 | Cc1cc(C(=O)N(C2CC2)C2CCCCC2c2ccccc2Cl)c(C)o1 (stereo not shown) [Example 177] | 5.17^[b] | –
27 | Cn1nc(C(F)(F)F)c(C(=O)NC2CC2c2ccccc2)c1F (stereo not shown) [Example 178] | 2.63^[b] | –
28 | Cn1nc(C(F)F)c(C(=O)NC2CC2c2ccc(Cl)cc2)c1F (stereo not shown) [Example 179] | 2.61^[b] | –
29 | Cn1nc(C(F)F)c(C(=O)N(C2CC2)C2CCCCC2(C)c2ccccc2)c1F (stereo not shown) [Example 180] | 4.18^[b] | –
30 | Cn1nc(C(F)F)c(C(=O)NC2CCCCC2c2ccccc2)c1F (stereo not shown) [Example 181] | 3.13^[b] | –
31 | Cn1nc(C(F)F)c(C(=O)NC2CCCCC2c2ccccc2)c1F (stereo not shown) [Example 182] | 3.29^[b] | –
32 | Cn1nc(C(F)F)c(C(=O)NC2CCCCC2c2ccccc2)c1Cl (stereo not shown) [Example 183] | 3.51^[b] | –
33 | Cn1nc(C(F)F)c(C(=O)NC2CCCCC2c2ccccc2)c1Cl (stereo not shown) [Example 184] | 3.33^[b] | –
34 | Cn1cc(C(=O)NC2CCCCC2c2ccccc2)c(C(F)F)n1 (stereo not shown) [Example 185] | 2.76^[b] | –
35 | Cn1cc(C(=O)NC2CCCCC2c2ccccc2)c(C(F)F)n1 (stereo not shown) [Example 186] | 3.00^[b] | –
36 | Cn1nc(C(F)F)c(C(=O)NC2CC2c2cccc(F)c2)c1F (stereo not shown) [Example 187] | 2.59^[b] | –
37 | Cn1nc(C(F)F)c(C(=O)NC2CC2c2ccc(F)cc2)c1F (stereo not shown) [Example 188] | 2.59^[b] | –
38 | Cn1nc(C(F)F)c(C(=O)NC2CC2c2ccccc2C(F)(F)F)c1F (stereo not shown) [Example 189] | 3.00^[b] | –
39 | Cn1nc(C(F)F)c(C(=S)N(C2CC2)C2CCCCC2(C)c2ccccc2)c1F (stereo not shown) [Example 190] | 5.01^[b] | –
40 | Cn1nc(C(F)F)c(C(=O)NC2CC2c2cccc(F)c2)c1Cl (stereo not shown) [Example 191] | 2.75^[b] | –
41 | Cn1nc(C(F)F)c(C(=O)NC2CC2c2ccc(F)cc2)c1Cl (stereo not shown) [Example 192] | 2.75^[b] | –
42 | Cn1nc(C(F)F)c(C(=O)NC2CC2c2ccccc2C(F)(F)F)c1Cl (stereo not shown) [Example 193] | 3.15^[b] | –

Row | SMILES | logP (method [b], pH 2.7) | further results
43 | CN(C(=O)c1c(C(F)F)nn(C)c1F)C1CCCCC1c1ccccc1 (stereo not shown) [Example 196] | 3.27^[b] | –
44 | CN(C(=O)c1c(C(F)F)nn(C)c1Cl)C1CCCCC1c1ccccc1 (stereo not shown) [Example 197] | 3.63^[b] | –
45 | O=C(NC1CC1c1ccc(Cl)cc1)c1ccccc1Cl (stereo not shown) [Example 198] | 3.09^[b] | logP (method [c], pH 7.8): 3.02^[c];
46 | O=C(NC1CC1c1ccc(Cl)cc1)c1ccccc1I (stereo not shown) [Example 199] | 3.24^[b] | logP (method [c], pH 7.8): 3.19^[c];
47 | O=C(NC1CC1c1ccc(Cl)cc1)c1c(F)cccc1F (stereo not shown) [Example 200] | 2.94^[b] | logP (method [c], pH 7.8): 2.89^[c];
48 | O=C(NC1CC1c1ccc(Cl)cc1)c1ccccc1C(F)(F)F (stereo not shown) [Example 201] | 3.27^[b] | logP (method [c], pH 7.8): 3.21^[c];
49 | O=C(NC1CC1c1ccc(Cl)cc1)c1sccc1I (stereo not shown) [Example 202] | 3.56^[b] | logP (method [c], pH 7.8): 3.50^[c];
50 | O=C(NC1CC1c1ccc(Cl)cc1)c1occc1Br (stereo not shown) [Example 204] | 3.04^[b] | logP (method [c], pH 7.8): 2.98^[c];
51 | O=C(NC1CC1c1ccc(Cl)cc1Cl)c1ccccc1F (stereo not shown) [Example 205] | 3.66^[b] | logP (method [c], pH 7.8): 3.55^[c];
52 | O=C(NC1CC1c1ccc(Cl)cc1Cl)c1ccccc1Cl (stereo not shown) [Example 206] | 3.57^[b] | logP (method [c], pH 7.8): 3.47^[c];
53 | O=C(NC1CC1c1ccc(Cl)cc1Cl)c1ccccc1Br (stereo not shown) [Example 207] | 3.58^[b] | logP (method [c], pH 7.8): 3.52^[c];
54 | O=C(NC1CC1c1ccc(Cl)cc1Cl)c1ccccc1I (stereo not shown) [Example 208] | 3.74^[b] | logP (method [c], pH 7.8): 3.64^[c];
55 | O=C(NC1CC1c1ccc(Cl)cc1Cl)c1c(F)cccc1F (stereo not shown) [Example 209] | 3.36^[b] | logP (method [c], pH 7.8): 3.29^[c];
56 | O=C(NC1CC1c1ccc(Cl)cc1Cl)c1ccccc1C(F)(F)F (stereo not shown) [Example 210] | 3.73^[b] | logP (method [c], pH 7.8): 3.62^[c];
57 | O=C(NC1CC1c1ccc(Cl)cc1Cl)c1cccnc1Cl (stereo not shown) [Example 211] | 2.82^[b] | logP (method [c], pH 7.8): 2.77^[c];
58 | O=C(NC1CCC1c1c(F)cccc1F)c1ncc(C(F)(F)F)cc1Cl (stereo not shown) [Example 228] | 3.61^[b] | –
59 | O=C(NC1CC1c1ccccc1Cl)c1ccccc1I (stereo not shown) [Example 229] | 3.14^[b] | –
60 | O=C(NC1CC1c1ccccc1Cl)c1ccccc1C(F)(F)F (stereo not shown) [Example 230] | 3.13^[b] | –
61 | Cn1cc(C(=O)NC2CC2c2ccccc2Cl)c(C(F)F)n1 (stereo not shown) [Example 231] | 2.45^[b] | –
62 | O=C(NC1CC1c1ccccc1C(F)(F)F)c1ccccc1I (stereo not shown) [Example 232] | 3.31^[b] | –
63 | O=C(NC1CC1c1ccccc1C(F)(F)F)c1ccccc1C(F)(F)F (stereo not shown) [Example 233] | 3.29^[b] | –

Row | SMILES | logP (method [b], pH 2.7) | further results
64 | Cn1cc(C(=O)NC2CC2c2ccccc2C(F)(F)F)c(C(F)F)n1 (stereo not shown) [Example 234] | 2.64^[b] | –
65 | O=C(NC1CCC1c1ccccc1Cl)c1ncc(C(F)(F)F)cc1Cl (stereo not shown) [Example 237] | 3.96^[b] | –
66 | O=C(NC1CCC1c1ccccc1Cl)c1ccccc1Cl (stereo not shown) [Example 239] | 3.30^[b] | –
67 | O=C(NC1CC1c1ccc(Cl)cc1)c1c(F)cccc1C(F)(F)F (stereo not shown) [Example 270] | – | logP (method [b] (pH 2.7)): 3.08^[b]; logP (method [c] pH 7.8): 3.03^[c];
68 | O=C(NC1CC1c1ccc(Cl)cc1)c1ccccc1Br (stereo not shown) [Example 272] | – | logP (method [b] (pH 2.7)): 2.82^[b]; logP (method [c] pH 7.8): 2.76^[c];
69 | O=C(NC1CC1c1ccc(Cl)cc1)c1ccccc1Cl (stereo not shown) [Example 275] | – | logP (method [b] (pH 2.7)): 2.77^[b]; logP (method [c] pH 7.8): 2.71^[c];
70 | Cc1nn(C)cc1C(=O)NC1CCCC1c1ccc(Cl)cc1 (stereo not shown) [Example 277] | – | logP (method [b] (pH 2.7)): 2.31^[b]
71 | O=C(NC1CCCC1c1ccc(Cl)cc1)c1ccccc1Cl (stereo not shown) [Example 278] | – | logP (method [b] (pH 2.7)): 3.45^[b]
72 | O=C(NC1CCCC1c1ccc(Cl)cc1)c1ccccc1C(F)(F)F (stereo not shown) [Example 279] | – | logP (method [b] (pH 2.7)): 3.64^[b]
73 | O=C(NC1CCCC1c1ccc(Cl)cc1)c1ccccc1I (stereo not shown) [Example 280] | – | logP (method [b] (pH 2.7)): 3.64^[b]
74 | O=C(NC1CCCC1c1ccc(Cl)cc1)c1cccnc1Cl (stereo not shown) [Example 281] | – | logP (method [b] (pH 2.7)): 2.81^[b]
75 | O=C(NC1CCCC1c1ccc(Cl)cc1)c1c(F)cccc1F (stereo not shown) [Example 282] | – | logP (method [b] (pH 2.7)): 3.28^[b]
76 | O=C(NC1CCCC1c1ccc(Cl)cc1)c1cccnc1C(F)(F)F (stereo not shown) [Example 283] | – | chromatographic logP (method [b] (pH 2.7)): 2.83
77 | Cc1nc(C)c(C(=O)NC2CCCC2c2ccc(Cl)cc2)s1 (stereo not shown) [Example 284] | – | logP (method [b] (pH 2.7)): 3.11^[b]
78 | O=C(NC1CCCC1c1ccccc1C(F)(F)F)c1ccccc1I (stereo not shown) [Example 285] | – | logP (method [b] (pH 2.7)): 3.81^[b]
79 | O=C(NC1CCCC1c1ccccc1C(F)(F)F)c1ccccc1C(F)(F)F (stereo not shown) [Example 286] | – | logP (method [b] (pH 2.7)): 3.79^[b]
80 | Cn1cc(C(=O)NC2CCCC2c2ccccc2C(F)(F)F)c(C(F)F)n1 (stereo not shown) [Example 287] | – | logP (method [b] (pH 2.7)): 3.06^[b]
81 | O=C(N[C@@H]1CCC[C@@H]1c1ccccc1C(F)(F)F)c1cccnc1C(F)(F)F [Example 290] | – | chromatographic logP (method [b] (pH 2.7)): 3.29
